According to ChEMBL document CHEMBL3421577, “Discovery and biological evaluation of tetrahydrothieno[2,3-c]pyridine derivatives as selective metabotropic glutamate receptor 1 antagonists for the potential treatment of neuropathic pain” (Eur J Med Chem, 2015):
pIC50: −log10 of the molar value.

Columns and labels:
[1] = molecular target: C-C chemokine receptor type 5 (Homo sapiens) (UniProt P51681); assay: Agonist activity at CCR5 (unknown origin) at 12.5 uM relative to control
[2] = molecular target: B2 bradykinin receptor (Homo sapiens) (UniProt P30411); assay: Agonist activity at BDKR2 (unknown origin) at 12.5 uM relative to control
B2 bradykinin receptor (Homo sapiens), sequence (P30411 whole entry): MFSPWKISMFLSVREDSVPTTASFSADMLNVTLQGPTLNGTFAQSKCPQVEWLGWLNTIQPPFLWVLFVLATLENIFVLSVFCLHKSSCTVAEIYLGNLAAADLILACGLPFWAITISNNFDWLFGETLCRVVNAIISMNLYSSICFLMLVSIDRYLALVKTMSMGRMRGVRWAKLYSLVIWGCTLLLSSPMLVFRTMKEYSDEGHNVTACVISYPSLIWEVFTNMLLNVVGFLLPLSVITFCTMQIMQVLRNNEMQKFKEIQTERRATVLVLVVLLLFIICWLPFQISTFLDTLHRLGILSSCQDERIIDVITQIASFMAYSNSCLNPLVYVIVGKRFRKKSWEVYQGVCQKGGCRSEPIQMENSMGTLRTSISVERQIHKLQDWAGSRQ

CYP2C19 = CYP2C19 (Homo sapiens, UniProt P33261); assay: Inhibition of recombinant human CYP2C19 assessed as remaining activity at 10 uM preincubated for 5 mins followed by substrate and NADP addition measured after 20 mins by fluorescence assay relative to control; type: ADME; settings: read-out: Activity
[3] = Drug uptake in Sprague-Dawley rat brain at 10 mg/kg, po measured at 2 hrs by LC-MS/MS analysis; type: ADME, organism-based; design: dose 10 mg/kg, route oral; settings: read-out: Drug uptake
[4] = molecular target: T1, Metabotropic glutamate receptor 1 (Homo sapiens, UniProt Q13255); assay: Antagonist activity at human mGluR1 expressed in human Chem-3 cells assessed as inhibition of L-glutamate-induced calcium release by calcium-5 reagent-based fluorescence assay; type: functional, cell-based
[5] = molecular target: Cannabinoid receptor 1 (Homo sapiens) (UniProt P21554); assay: Agonist activity at CB1 receptor (unknown origin) at 12.5 uM relative to control
Cannabinoid receptor 1 (Homo sapiens), sequence (P21554 whole entry): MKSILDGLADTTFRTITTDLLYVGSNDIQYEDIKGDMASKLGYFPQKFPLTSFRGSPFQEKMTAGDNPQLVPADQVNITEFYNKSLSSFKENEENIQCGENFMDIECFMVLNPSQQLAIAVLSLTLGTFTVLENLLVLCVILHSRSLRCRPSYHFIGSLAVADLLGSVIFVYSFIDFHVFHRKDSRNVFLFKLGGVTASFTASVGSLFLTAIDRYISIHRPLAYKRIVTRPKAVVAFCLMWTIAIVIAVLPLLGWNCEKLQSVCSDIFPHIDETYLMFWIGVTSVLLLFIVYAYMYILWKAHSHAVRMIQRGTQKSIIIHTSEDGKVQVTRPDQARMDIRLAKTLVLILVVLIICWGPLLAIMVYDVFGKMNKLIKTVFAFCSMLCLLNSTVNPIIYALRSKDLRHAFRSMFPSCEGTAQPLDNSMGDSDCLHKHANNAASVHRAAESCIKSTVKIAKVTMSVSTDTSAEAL

[6] = molecular target: Muscarinic acetylcholine receptor M1 (Homo sapiens) (UniProt P11229); assay: Agonist activity at M1 receptor (unknown origin) at 12.5 uM relative to control
[7] = molecular target: Metabotropic glutamate receptor 2 (Homo sapiens) (UniProt Q14416); assay: Agonist activity at mGlu2 receptor (unknown origin) at 12.5 uM relative to control
[8] = molecular target: 5-hydroxytryptamine receptor 2A (Homo sapiens) (UniProt P28223); assay: Agonist activity at 5HT2A receptor (unknown origin) at 12.5 uM relative to control
5-hydroxytryptamine receptor 2A (Homo sapiens), sequence (P28223 whole entry): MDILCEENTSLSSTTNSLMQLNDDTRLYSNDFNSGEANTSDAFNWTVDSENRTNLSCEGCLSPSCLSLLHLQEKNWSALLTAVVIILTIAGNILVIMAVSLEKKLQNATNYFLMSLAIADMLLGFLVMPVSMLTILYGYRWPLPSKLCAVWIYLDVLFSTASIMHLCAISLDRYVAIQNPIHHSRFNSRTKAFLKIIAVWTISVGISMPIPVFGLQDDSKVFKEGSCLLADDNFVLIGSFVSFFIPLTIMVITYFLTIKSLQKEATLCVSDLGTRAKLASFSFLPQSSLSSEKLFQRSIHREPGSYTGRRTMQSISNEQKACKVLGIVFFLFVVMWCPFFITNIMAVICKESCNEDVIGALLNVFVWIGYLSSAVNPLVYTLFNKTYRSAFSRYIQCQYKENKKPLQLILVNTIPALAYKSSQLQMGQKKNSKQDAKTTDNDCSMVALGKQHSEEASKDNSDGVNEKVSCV

[9] = molecular target: 5-hydroxytryptamine receptor 2A (Homo sapiens) (UniProt P28223); assay: Antagonist activity at 5HT2A receptor (unknown origin) at 10 uM relative to control
[10] = molecular target: C-X-C chemokine receptor type 2 (Homo sapiens) (UniProt P25025); assay: Agonist activity at CXCR2 (unknown origin) at 12.5 uM relative to control
[11] = AUC (0 to infinity) in Sprague-Dawley rat at 10 mg/kg, iv by LC-MS/MS analysis; type: ADME, organism-based; design: time infinity, dose 10 mg/kg, route intravenous; settings: plasma
[12] = Apparent volume of distribution at steady state in Sprague-Dawley rat at 10 mg/kg, iv by LC-MS/MS analysis; type: ADME, organism-based; design: dose 10 mg/kg, route intravenous; settings: in vivo, read-out: Vdss(app)
CYP3A4 = CYP3A4 (Homo sapiens, UniProt P08684); assay: Inhibition of recombinant human CYP3A4 assessed as remaining activity at 10 uM preincubated for 5 mins followed by substrate and NADP addition measured after 20 mins by fluorescence assay relative to control; type: ADME; settings: read-out: Activity
CYP2C9 = CYP2C9 (Homo sapiens, UniProt P11712); assay: Inhibition of recombinant human CYP2C9 assessed as remaining activity at 10 uM preincubated for 5 mins followed by substrate and NADP addition measured after 20 mins by fluorescence assay relative to control; type: ADME; settings: read-out: Activity
[13] = Total clearance in Sprague-Dawley rat at 10 mg/kg, iv by LC-MS/MS analysis; type: ADME, organism-based; design: dose 10 mg/kg, route intravenous; settings: in vivo
[14] = Ratio of drug level in brain to plasma in Sprague-Dawley rat at 10 mg/kg, po measured at 2 hrs by LC-MS/MS analysis; type: ADME, organism-based; design: dose 10 mg/kg, route oral; settings: read-out: BPR
[15] = molecular target: Cannabinoid receptor 1 (Homo sapiens) (UniProt P21554); assay: Antagonist activity at CB1 receptor (unknown origin) at 10 uM relative to control
[16] = molecular target: T1, Metabotropic glutamate receptor 1; assay: Agonist activity at mGlu1 receptor (unknown origin) at 12.5 uM relative to control
[17] = molecular target: C-X-C chemokine receptor type 4 (Homo sapiens) (UniProt P61073); assay: Agonist activity at CXCR4 (unknown origin) at 12.5 uM relative to control
C-X-C chemokine receptor type 4 (Homo sapiens), sequence (P61073 whole entry): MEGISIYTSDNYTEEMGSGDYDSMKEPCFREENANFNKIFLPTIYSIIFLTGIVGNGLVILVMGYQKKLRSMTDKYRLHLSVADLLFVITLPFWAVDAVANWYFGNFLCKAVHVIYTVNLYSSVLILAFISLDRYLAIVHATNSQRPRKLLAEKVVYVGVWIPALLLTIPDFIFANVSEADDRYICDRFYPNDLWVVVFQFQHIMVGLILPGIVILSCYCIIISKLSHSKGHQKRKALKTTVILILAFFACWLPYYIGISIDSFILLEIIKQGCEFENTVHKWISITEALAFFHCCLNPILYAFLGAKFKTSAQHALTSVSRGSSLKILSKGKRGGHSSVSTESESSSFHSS

[18] = Drug excretion in Sprague-Dawley rat at 10 mg/kg, iv by LC-MS/MS analysis; type: ADME, organism-based; design: dose 10 mg/kg, route intravenous; settings: in vivo, read-out: Drug excretion
[19] = molecular target: 5-hydroxytryptamine receptor 2C (Homo sapiens) (UniProt P28335); assay: Agonist activity at 5HT2C receptor (unknown origin) at 12.5 uM relative to control
5-hydroxytryptamine receptor 2C (Homo sapiens), sequence (P28335 whole entry): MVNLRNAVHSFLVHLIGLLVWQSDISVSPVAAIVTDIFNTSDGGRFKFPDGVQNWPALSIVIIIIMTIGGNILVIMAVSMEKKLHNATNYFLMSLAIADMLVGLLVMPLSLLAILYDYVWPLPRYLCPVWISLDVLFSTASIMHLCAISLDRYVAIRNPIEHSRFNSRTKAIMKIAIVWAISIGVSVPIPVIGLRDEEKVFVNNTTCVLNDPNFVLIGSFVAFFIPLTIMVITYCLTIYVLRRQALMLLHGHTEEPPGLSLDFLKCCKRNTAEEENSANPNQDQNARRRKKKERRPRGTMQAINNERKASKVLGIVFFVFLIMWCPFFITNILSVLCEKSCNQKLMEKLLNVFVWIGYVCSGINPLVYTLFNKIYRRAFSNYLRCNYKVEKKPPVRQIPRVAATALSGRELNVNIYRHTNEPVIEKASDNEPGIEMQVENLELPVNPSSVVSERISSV

[20] = molecular target: C-C chemokine receptor type 2 (Homo sapiens) (UniProt P41597); assay: Antagonist activity at CCR2B (unknown origin) at 10 uM relative to control
C-C chemokine receptor type 2 (Homo sapiens), sequence (P41597 whole entry, looked up): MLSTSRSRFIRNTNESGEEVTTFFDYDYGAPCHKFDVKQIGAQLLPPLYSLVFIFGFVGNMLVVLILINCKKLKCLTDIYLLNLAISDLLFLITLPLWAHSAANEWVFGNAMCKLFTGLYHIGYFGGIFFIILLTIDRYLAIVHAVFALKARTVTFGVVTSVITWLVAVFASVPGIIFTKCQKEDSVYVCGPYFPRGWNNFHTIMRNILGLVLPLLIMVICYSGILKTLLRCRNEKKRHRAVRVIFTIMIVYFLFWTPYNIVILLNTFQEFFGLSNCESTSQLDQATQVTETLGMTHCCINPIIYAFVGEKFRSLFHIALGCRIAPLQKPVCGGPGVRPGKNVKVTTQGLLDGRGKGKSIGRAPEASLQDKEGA

[21] = molecular target: Metabotropic glutamate receptor 5 (Homo sapiens, UniProt P41594); assay: Antagonist activity at human mGluR5 expressed in human embryonic kidney cells assessed as inhibition of L-glutamate-induced calcium release at 10 uM by calcium-5 reagent-based fluorescence assay relative to control; type: functional, cell-based
Metabotropic glutamate receptor 5, sequence (P41594 21-1212 limits assumed): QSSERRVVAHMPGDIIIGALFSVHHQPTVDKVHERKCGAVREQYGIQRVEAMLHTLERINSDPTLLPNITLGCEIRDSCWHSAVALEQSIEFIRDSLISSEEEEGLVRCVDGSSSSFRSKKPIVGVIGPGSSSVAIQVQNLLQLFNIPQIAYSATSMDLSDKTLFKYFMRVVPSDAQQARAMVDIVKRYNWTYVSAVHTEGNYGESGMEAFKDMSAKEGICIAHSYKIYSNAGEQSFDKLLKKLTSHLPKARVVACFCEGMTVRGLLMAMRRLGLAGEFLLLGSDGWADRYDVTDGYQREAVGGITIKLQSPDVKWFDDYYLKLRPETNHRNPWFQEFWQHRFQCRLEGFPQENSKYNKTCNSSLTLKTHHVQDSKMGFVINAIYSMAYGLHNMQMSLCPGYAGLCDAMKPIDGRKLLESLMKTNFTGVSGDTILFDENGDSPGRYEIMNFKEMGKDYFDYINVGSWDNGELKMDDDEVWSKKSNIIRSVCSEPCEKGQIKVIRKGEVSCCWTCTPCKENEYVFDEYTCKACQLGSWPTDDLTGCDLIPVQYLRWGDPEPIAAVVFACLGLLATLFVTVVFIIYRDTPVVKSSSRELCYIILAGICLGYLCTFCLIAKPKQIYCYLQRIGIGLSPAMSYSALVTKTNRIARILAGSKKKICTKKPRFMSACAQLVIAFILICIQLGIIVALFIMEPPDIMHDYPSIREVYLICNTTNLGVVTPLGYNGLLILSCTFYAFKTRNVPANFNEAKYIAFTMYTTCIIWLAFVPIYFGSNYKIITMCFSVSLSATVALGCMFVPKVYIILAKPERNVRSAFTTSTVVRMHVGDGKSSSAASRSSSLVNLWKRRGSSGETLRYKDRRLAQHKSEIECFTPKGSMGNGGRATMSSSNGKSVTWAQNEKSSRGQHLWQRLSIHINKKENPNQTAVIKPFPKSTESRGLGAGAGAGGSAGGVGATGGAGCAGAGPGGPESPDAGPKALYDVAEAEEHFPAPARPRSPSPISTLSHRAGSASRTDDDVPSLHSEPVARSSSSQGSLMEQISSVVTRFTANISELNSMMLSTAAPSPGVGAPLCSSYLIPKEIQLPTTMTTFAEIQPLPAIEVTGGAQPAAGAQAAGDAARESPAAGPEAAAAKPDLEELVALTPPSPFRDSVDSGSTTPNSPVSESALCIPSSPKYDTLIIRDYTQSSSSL

[22] = Metabolic stability in human liver microsomes assessed as compound remaining at 1 uM after 30 mins by LC-MS/MS analysis in presence of NADPH; type: ADME; settings: read-out: Stability
[23] = molecular target: Alpha-1A adrenergic receptor (Homo sapiens) (UniProt P35348); assay: Antagonist activity at ADRA1A (unknown origin) at 10 uM relative to control
Alpha-1A adrenergic receptor (Homo sapiens), sequence (P35348 whole entry): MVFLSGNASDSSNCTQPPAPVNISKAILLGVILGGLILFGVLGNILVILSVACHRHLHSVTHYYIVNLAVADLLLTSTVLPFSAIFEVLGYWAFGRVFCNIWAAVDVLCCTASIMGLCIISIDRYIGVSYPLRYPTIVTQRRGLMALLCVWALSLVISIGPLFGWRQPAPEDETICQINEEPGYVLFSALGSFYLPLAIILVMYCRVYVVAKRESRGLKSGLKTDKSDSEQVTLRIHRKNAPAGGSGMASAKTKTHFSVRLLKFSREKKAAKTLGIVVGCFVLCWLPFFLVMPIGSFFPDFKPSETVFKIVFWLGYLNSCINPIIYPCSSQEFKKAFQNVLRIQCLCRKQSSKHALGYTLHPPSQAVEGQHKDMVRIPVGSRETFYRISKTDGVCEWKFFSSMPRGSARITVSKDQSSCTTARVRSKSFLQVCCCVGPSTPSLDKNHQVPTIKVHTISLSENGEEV

[24] = molecular target: Delta-type opioid receptor (Homo sapiens) (UniProt P41143); assay: Antagonist activity at OPRD1 receptor (unknown origin) at 10 uM relative to control
Delta-type opioid receptor (Homo sapiens), sequence (P41143 whole entry): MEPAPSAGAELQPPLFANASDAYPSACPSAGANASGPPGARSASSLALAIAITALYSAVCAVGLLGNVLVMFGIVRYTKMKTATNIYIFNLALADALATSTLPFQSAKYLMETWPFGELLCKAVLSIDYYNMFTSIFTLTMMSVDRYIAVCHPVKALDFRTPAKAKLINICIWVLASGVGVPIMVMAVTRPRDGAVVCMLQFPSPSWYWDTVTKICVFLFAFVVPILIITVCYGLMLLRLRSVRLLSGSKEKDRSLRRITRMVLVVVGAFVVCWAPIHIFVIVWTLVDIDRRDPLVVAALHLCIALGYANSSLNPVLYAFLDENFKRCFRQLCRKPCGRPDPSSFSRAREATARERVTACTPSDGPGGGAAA

[25] = AUClast in Sprague-Dawley rat at 10 mg/kg, po by LC-MS/MS analysis; type: ADME, organism-based; design: time 0 - last, dose 10 mg/kg, route oral; settings: plasma
[26] = molecular target: C-C chemokine receptor type 4 (Homo sapiens) (UniProt P51679); assay: Agonist activity at CCR4 (unknown origin) at 12.5 uM relative to control
C-C chemokine receptor type 4 (Homo sapiens), sequence (P51679 whole entry): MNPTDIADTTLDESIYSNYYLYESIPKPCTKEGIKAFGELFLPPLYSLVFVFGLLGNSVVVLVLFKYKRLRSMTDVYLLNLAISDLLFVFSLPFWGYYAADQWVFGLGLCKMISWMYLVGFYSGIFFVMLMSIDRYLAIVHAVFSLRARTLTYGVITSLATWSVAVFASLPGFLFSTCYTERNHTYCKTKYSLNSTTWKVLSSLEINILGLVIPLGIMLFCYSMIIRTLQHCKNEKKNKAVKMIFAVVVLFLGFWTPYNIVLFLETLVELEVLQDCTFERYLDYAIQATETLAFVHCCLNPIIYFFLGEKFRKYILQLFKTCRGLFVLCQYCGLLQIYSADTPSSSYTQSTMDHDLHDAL

CYP1A2 = molecular target: T2, CYP1A2 (Homo sapiens, UniProt P05177); assay: Inhibition of recombinant human CYP1A2 assessed as remaining activity at 10 uM preincubated for 5 mins followed by substrate and NADP addition measured after 20 mins by fluorescence assay relative to control; type: ADME; settings: read-out: Activity
T2 sequence (P05177 whole entry): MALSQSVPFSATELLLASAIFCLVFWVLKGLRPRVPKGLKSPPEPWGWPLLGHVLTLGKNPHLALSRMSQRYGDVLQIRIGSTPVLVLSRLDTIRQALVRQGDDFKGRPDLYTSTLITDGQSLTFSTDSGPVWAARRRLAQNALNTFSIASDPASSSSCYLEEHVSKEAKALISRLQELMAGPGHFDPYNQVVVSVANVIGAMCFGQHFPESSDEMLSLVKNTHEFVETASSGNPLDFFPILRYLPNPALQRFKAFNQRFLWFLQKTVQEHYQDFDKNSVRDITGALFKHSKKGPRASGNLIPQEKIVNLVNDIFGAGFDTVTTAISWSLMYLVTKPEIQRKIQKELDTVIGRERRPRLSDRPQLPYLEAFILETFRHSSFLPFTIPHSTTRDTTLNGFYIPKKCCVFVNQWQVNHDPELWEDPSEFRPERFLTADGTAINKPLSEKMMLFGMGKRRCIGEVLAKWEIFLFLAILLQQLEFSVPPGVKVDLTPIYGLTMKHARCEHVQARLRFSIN

[27] = molecular target: Delta-type opioid receptor (Homo sapiens) (UniProt P41143); assay: Agonist activity at OPRD1 receptor (unknown origin) at 12.5 uM relative to control
[28] = Cmax in Sprague-Dawley rat at 10 mg/kg, po by LC-MS/MS analysis; type: ADME, organism-based; design: dose 10 mg/kg, route oral; settings: in vivo
[29] = molecular target: 5-hydroxytryptamine receptor 2C (Homo sapiens) (UniProt P28335); assay: Antagonist activity at 5HT2C receptor (unknown origin) at 10 uM relative to control

Question: With `Cc1cc(C(=O)N2CCc3c(sc(NCc4ccccc4)c3C#N)C2)[nH]n1` as the molecule, how does the Activity [1] read?
Answer: -0.6%

Question: And the Activity [2]?
Answer: 0.7%

Question: And the activity at 20 min, 10 µM (CYP2C19)?
Answer: 14.2%

Question: And the concentration at 2 h [3]?
Answer: 156 ng/mL

Question: And the pIC50 [4]?
Answer: 5.85

Question: What about the Activity [5] of the same molecule?
Answer: 0.3%

Question: And the Activity [6]?
Answer: -0.5%

Question: And the Activity [7]?
Answer: -2.7%

Question: And the Activity [8]?
Answer: -4%

Question: And the inhibition [9]?
Answer: 36.2%

Question: And the Activity [10]?
Answer: -0.9%

Question: What about the AUC(0-inf) [11] of the same molecule?
Answer: 9270 ng·h/mL

Question: And the Vd [12]?
Answer: 1.66 L/kg

Question: And the activity at 20 min, 10 µM (CYP3A4)?
Answer: 20.5%

Question: What about the activity at 20 min, 10 µM (CYP2C9) of the same molecule?
Answer: 6.77%

Question: And the clearance [13]?
Answer: 20.1 mL/min/kg

Question: What about the Kp at 2 h [14] of the same molecule?
Answer: 0.13

Question: What about the inhibition [15] of the same molecule?
Answer: -2.8%

Question: What about the Activity [16] of the same molecule?
Answer: -0.2%

Question: And the Activity [17]?
Answer: -3.1%

Question: And the dose excreted [18]?
Answer: 0%

Question: And the Activity [19]?
Answer: -0.3%

Question: What about the inhibition [20] of the same molecule?
Answer: -0.1%

Question: And the inhibition [21]?
Answer: 59.8%

Question: What about the remaining at 0.5 h, 1 µM [22] of the same molecule?
Answer: 77.6%

Question: And the inhibition [23]?
Answer: 9.2%

Question: And the inhibition [24]?
Answer: 3.8%

Question: And the AUC(0-t) [25]?
Answer: 4090 ng·h/mL

Question: And the Activity [26]?
Answer: -2.3%

Question: What about the activity at 20 min, 10 µM (CYP1A2) of the same molecule?
Answer: 72.7%

Question: And the Activity [27]?
Answer: 1.5%

Question: What about the Cmax [28] of the same molecule?
Answer: 1410 ng/mL

Question: And the inhibition [29]?
Answer: -9.4%
